Assay results taken from ChEMBL document CHEMBL1134007, “Synthesis and structure-activity relationships of 1-phenylpyrazoles as xanthine oxidase inhibitors” (Bioorg Med Chem Lett, 2001).
pIC50: −log10 of the molar value.

Columns and labels:
[1] = target: T1, Xanthine dehydrogenase/oxidase (Bos taurus, UniProt P80457); test: In vitro percent inhibition against Xanthine oxidase at concentration of 10000 nmol/L
[2] = target: T1, Xanthine dehydrogenase/oxidase; test: In vitro inhibitory concentration against Xanthine oxidase
[3] = In vivo CL/F determined; format: ADME, organism-based; conditions: rat
Rattus norvegicus [4] = test: Tested for hypouricemic effect in potassium oxonate (uricase inhibitor) treated (po) rats for 0-24 hr expressed as ED20; format: functional
[5] = Tmax determined after 0.3 mg/kg oral administration in potassium oxonate treated rats; format: ADME, organism-based; parameters: dose 0.3 mg/kg, route oral; conditions: rat, in vivo
Rattus norvegicus [6] = test: Tested for hypouricemic effect in potassium oxonate (uricase inhibitor) treated (po) rats for 0-6 hr expressed as ED20; format: functional
[7] = Tmax determined after 3 mg/kg oral administration in potassium oxonate treated rats; format: ADME, organism-based; parameters: dose 3 mg/kg, route oral; conditions: rat, in vivo
Rattus norvegicus [8] = test: Tested for hypouricemic effect in potassium oxonate (uricase inhibitor) treated (po)rats for 0-6 hr expressed as ED20; format: functional

T1 sequence (P80457 whole entry): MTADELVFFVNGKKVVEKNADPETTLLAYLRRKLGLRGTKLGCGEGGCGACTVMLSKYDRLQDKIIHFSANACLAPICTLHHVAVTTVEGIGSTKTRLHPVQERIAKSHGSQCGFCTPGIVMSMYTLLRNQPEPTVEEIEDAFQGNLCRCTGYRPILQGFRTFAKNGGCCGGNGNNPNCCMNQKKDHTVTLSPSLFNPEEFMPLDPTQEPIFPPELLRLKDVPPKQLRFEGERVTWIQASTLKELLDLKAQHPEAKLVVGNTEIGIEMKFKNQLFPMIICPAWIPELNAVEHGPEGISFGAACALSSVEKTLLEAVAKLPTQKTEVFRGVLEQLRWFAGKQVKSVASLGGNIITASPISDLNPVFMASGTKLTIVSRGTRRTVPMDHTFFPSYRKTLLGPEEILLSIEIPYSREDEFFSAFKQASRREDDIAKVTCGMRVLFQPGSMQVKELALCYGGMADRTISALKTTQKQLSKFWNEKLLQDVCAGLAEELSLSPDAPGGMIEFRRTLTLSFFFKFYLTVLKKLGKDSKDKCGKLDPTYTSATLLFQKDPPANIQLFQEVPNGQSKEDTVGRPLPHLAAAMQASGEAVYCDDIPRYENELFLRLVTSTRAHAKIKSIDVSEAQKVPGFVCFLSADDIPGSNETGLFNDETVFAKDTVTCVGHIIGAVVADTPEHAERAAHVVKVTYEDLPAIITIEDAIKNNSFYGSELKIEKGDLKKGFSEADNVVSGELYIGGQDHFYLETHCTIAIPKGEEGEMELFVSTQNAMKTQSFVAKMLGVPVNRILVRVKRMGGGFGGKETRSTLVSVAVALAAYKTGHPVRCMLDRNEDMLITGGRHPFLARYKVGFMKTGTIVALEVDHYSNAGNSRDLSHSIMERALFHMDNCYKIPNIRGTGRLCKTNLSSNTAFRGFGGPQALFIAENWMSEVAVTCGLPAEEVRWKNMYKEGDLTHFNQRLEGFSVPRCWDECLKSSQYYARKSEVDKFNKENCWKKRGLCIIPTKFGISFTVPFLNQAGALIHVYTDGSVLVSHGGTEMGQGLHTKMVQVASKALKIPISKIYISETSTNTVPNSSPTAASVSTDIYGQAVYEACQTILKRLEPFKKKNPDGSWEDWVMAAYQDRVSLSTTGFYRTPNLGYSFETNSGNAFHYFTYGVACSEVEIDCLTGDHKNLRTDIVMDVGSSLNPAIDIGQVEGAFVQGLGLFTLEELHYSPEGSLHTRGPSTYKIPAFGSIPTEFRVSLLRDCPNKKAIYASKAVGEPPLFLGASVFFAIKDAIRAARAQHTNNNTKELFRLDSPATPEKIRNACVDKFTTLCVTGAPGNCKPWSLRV

Row | inhibition at 10 µM [1] | pIC50 [2] | Compound | ED20 (Rattus norvegicus [4]) | further results
1 | < 50% |  | COc1ccc(-n2cc(C(=O)O)cn2)cc1 |  | 
2 |  | 6.15 | CN(C)CCOc1ccc(-n2cc(C(=O)O)cn2)cc1C#N |  | 
3 |  |  | CC(C)COc1ccc(-n2cc(C(=O)O)cn2)cc1C#N | > 10 mg/kg | CL/F [3]: 9.83 mL/min/kg; Tmax [5]: 1.1 h; ED20 (Rattus norvegicus [6]): 2.5 mg/kg; Tmax [7]: 1.3 h
4 |  |  | Oc1ncnc2[nH]ncc12 [ALLOPURINOL] | > 10 mg/kg | ED20 (Rattus norvegicus [8]): 3.5 mg/kg
5 | < 50% |  | O=C(O)c1cnn(-c2ccc(Cl)cc2)c1 |  | 
6 | < 50% |  | CCOC(=O)c1cnn(-c2ccc(OCC(C)C)c(C#N)c2)c1 |  | 
7 |  | 5.82 | N#Cc1cc(-n2cc(C(=O)O)cn2)ccc1OCC(=O)O |  | 
8 |  | 6.34 | COc1ccc(-n2cc(C(=O)O)cn2)cc1C#N |  | 
9 |  | 7.48 | CC(C)COc1ccc(-n2cc(C(=O)O)cn2)cc1[N+](=O)[O-] |  | 
10 |  |  | CC(C)(C)COc1ccc(-n2cc(C(=O)O)cn2)cc1C#N | 1.4 mg/kg | CL/F [3]: 2 mL/min/kg; Tmax [5]: 3.5 h; ED20 (Rattus norvegicus [6]): 0.55 mg/kg; Tmax [7]: 3.5 h
